≈ marks a conversion by molar mass, not a printed value.
Columns and labels:
Type in all cases: functional
[1] = system: Candida albicans; test: Antifungal activity against Candida albicans assessed as reduction in fungal cell growth incubated for 24 and 72 hrs by cup plate method
[2] = system: Fusarium oxysporum; test: Antifungal activity against Fusarium oxysporum assessed as reduction in fungal cell growth incubated for 24 and 72 hrs by cup plate method
[3] = system: Aspergillus flavus; test: Antifungal activity against Aspergillus flavus assessed as reduction in fungal cell growth incubated for 24 and 72 hrs by cup plate method
[4] = system: Aspergillus niger; test: Antifungal activity against Aspergillus niger assessed as reduction in fungal cell growth incubated for 72 hrs by broth microdilution method
[5] = system: Cryptococcus neoformans; test: Antifungal activity against Cryptococcus neoformans LA314 assessed as reduction in fungal cell growth incubated for 48 hrs by broth microdilution method; conditions: LA314, 48 h
[6] = system: Nakaseomyces glabratus; test: Antifungal activity against Candida glabrata assessed as reduction in fungal cell growth incubated for 48 hrs by broth microdilution method
[7] = system: Candida albicans; test: Antifungal activity against Candida albicans assessed as reduction in fungal cell growth incubated for 48 hrs by broth microdilution method
[8] = system: Candida tropicalis; test: Antifungal activity against Candida tropicalis assessed as reduction in fungal cell growth incubated for 48 hrs by broth microdilution method
[9] = system: Candida parapsilosis; test: Antifungal activity against Candida parapsilosis ATCC 22019 assessed as reduction in fungal cell growth incubated for 48 hrs by broth microdilution method; conditions: Lodderomyces parapsilosis, ATCC 22019, 48 h
[10] = system: Pichia kudriavzevii; test: Antifungal activity against Candida krusei assessed as reduction in fungal cell growth incubated for 48 hrs by broth microdilution method

Row | MIC [4] [µg/mL] | MIC [5] [µg/mL] | MIC [6] [µg/mL] | MIC [7] [µg/mL] | MIC [8] [µg/mL] | MIC [9] [µg/mL] | MIC [10] [µg/mL] | SMILES | MIC [1] [µg/mL] | MIC [2] [µg/mL] | MIC [3] [µg/mL]
1 |  |  |  |  |  |  |  | CCOC(=O)C(C#N)C(c1cc2ccc(OC)cc2n2nnnc12)P(=O)(OCC)OCC (stereo not given) | 10 to 25 (≈ 21.7 to 54.2 µM) | 10 to 25 (≈ 21.7 to 54.2 µM) | 10 to 25 (≈ 21.7 to 54.2 µM)
2 |  |  |  |  |  |  |  | CCOC(=O)C(C#N)C(c1cc2ccc(C)cc2n2nnnc12)P(=O)(OCC)OCC (stereo not given) | 10 to 25 (≈ 22.5 to 56.1 µM) | 10 to 25 (≈ 22.5 to 56.1 µM) | 10 to 25 (≈ 22.5 to 56.1 µM)
3 |  |  |  |  |  |  |  | Cc1ccc2c(c1)cc(/C=C/C(=O)c1cc(Br)ccc1O)c1nnnn12 | 25 to 100 (≈ 61.1 to 244 µM) | 25 to 100 (≈ 61.1 to 244 µM) | 25 to 100 (≈ 61.1 to 244 µM)
4 |  |  |  |  |  |  |  | Cc1ccc2cc(C3CC(c4cc(Br)ccc4O)=NN3)c3nnnn3c2c1 (stereo not given) | 25 to 100 (≈ 59.1 to 236 µM) | 25 to 100 (≈ 59.1 to 236 µM) | 25 to 100 (≈ 59.1 to 236 µM)
5 |  |  |  |  |  |  |  | Cc1ccc2c(c1)cc(C1CC(c3cc(Br)ccc3O)=NN1)c1nnnn12 (stereo not given) | 25 to 100 (≈ 59.1 to 236 µM) | 25 to 100 (≈ 59.1 to 236 µM) | 25 to 100 (≈ 59.1 to 236 µM)
6 |  |  |  |  |  |  |  | CCOC(=O)C(C#N)C(c1cc2ccc(CC)cc2n2nnnc12)P(=O)(OCC)OCC (stereo not given) | 10 to 25 (≈ 21.8 to 54.4 µM) | 10 to 25 (≈ 21.8 to 54.4 µM) | 10 to 25 (≈ 21.8 to 54.4 µM)
7 |  |  |  |  |  |  |  | CCOC(=O)C(C#N)C(c1cc2c(C)cccc2n2nnnc12)P(=O)(OCC)OCC (stereo not given) | 10 to 25 (≈ 22.5 to 56.1 µM) | 10 to 25 (≈ 22.5 to 56.1 µM) | 10 to 25 (≈ 22.5 to 56.1 µM)
8 | 0.25 to 16 (≈ 0.49 to 31.3 µM) | 0.25 to 16 (≈ 0.49 to 31.3 µM) | 0.25 to 16 (≈ 0.49 to 31.3 µM) | 0.25 to 16 (≈ 0.49 to 31.3 µM) | 0.25 to 16 (≈ 0.49 to 31.3 µM) | 0.25 to 16 (≈ 0.49 to 31.3 µM) | 0.25 to 16 (≈ 0.49 to 31.3 µM) | C[C@H](n1nnc(CCN2CCN(c3ccccn3)CC2)n1)[C@](O)(Cn1cncn1)c1ccc(F)cc1F |  |  | 
9 | 0.5 to 16 (≈ 0.979 to 31.3 µM) | 0.5 to 16 (≈ 0.979 to 31.3 µM) | 0.5 to 16 (≈ 0.979 to 31.3 µM) | 0.5 to 16 (≈ 0.979 to 31.3 µM) | 0.5 to 16 (≈ 0.979 to 31.3 µM) | 0.5 to 16 (≈ 0.979 to 31.3 µM) | 0.5 to 16 (≈ 0.979 to 31.3 µM) | CC(n1nnnc1CCN1CCN(c2ccccn2)CC1)C(O)(Cn1cncn1)c1ccc(F)cc1F (stereo not given) |  |  | 
10 | 0.12 to 16 (≈ 0.229 to 30.6 µM) | 0.12 to 16 (≈ 0.229 to 30.6 µM) | 0.12 to 16 (≈ 0.229 to 30.6 µM) | 0.12 to 16 (≈ 0.229 to 30.6 µM) | 0.12 to 16 (≈ 0.229 to 30.6 µM) | 0.12 to 16 (≈ 0.229 to 30.6 µM) | 0.12 to 16 (≈ 0.229 to 30.6 µM) | C[C@H](n1nnnc1CCN1CCN(Cc2ccccc2)CC1)[C@](O)(Cn1cncn1)c1ccc(F)cc1F |  |  | 
11 | 1 to 16 (≈ 1.77 to 28.3 µM) | 1 to 16 (≈ 1.77 to 28.3 µM) | 1 to 16 (≈ 1.77 to 28.3 µM) | 1 to 16 (≈ 1.77 to 28.3 µM) | 1 to 16 (≈ 1.77 to 28.3 µM) | 1 to 16 (≈ 1.77 to 28.3 µM) | 1 to 16 (≈ 1.77 to 28.3 µM) | OC(Cn1cncn1)(Cn1nnc(CCN2CCN(c3c(Cl)cccc3Cl)CC2)n1)c1ccc(F)cc1F (stereo not given) |  |  | 
12 | 0.25 to 16 (≈ 0.433 to 27.7 µM) | 0.25 to 16 (≈ 0.433 to 27.7 µM) | 0.25 to 16 (≈ 0.433 to 27.7 µM) | 0.25 to 16 (≈ 0.433 to 27.7 µM) | 0.25 to 16 (≈ 0.433 to 27.7 µM) | 0.25 to 16 (≈ 0.433 to 27.7 µM) | 0.25 to 16 (≈ 0.433 to 27.7 µM) | C[C@H](n1nnc(CCN2CCN(c3cccc(C(F)(F)F)c3)CC2)n1)[C@](O)(Cn1cncn1)c1ccc(F)cc1F |  |  | 
13 | 1 to 16 (≈ 1.85 to 29.7 µM) | 1 to 16 (≈ 1.85 to 29.7 µM) | 1 to 16 (≈ 1.85 to 29.7 µM) | 1 to 16 (≈ 1.85 to 29.7 µM) | 1 to 16 (≈ 1.85 to 29.7 µM) | 1 to 16 (≈ 1.85 to 29.7 µM) | 1 to 16 (≈ 1.85 to 29.7 µM) | COc1ccccc1N1CCN(CCc2nnn(C(C)C(O)(Cn3cncn3)c3ccc(F)cc3F)n2)CC1 (stereo not given) |  |  | 
14 | 0.12 to 16 (≈ 0.227 to 30.3 µM) | 0.12 to 16 (≈ 0.227 to 30.3 µM) | 0.12 to 16 (≈ 0.227 to 30.3 µM) | 0.12 to 16 (≈ 0.227 to 30.3 µM) | 0.12 to 16 (≈ 0.227 to 30.3 µM) | 0.12 to 16 (≈ 0.227 to 30.3 µM) | 0.12 to 16 (≈ 0.227 to 30.3 µM) | C[C@H](n1nnnc1CCN1CCN(c2ccc(F)cc2)CC1)[C@](O)(Cn1cncn1)c1ccc(F)cc1F |  |  | 
15 | 1 to 16 (≈ 2.02 to 32.3 µM) | 1 to 16 (≈ 2.02 to 32.3 µM) | 1 to 16 (≈ 2.02 to 32.3 µM) | 1 to 16 (≈ 2.02 to 32.3 µM) | 1 to 16 (≈ 2.02 to 32.3 µM) | 1 to 16 (≈ 2.02 to 32.3 µM) | 1 to 16 (≈ 2.02 to 32.3 µM) | OC(Cn1cncn1)(Cn1nnc(CCN2CCN(c3ccccc3)CC2)n1)c1ccc(F)cc1F (stereo not given) |  |  | 
16 | 1 to 16 (≈ 1.73 to 27.7 µM) | 1 to 16 (≈ 1.73 to 27.7 µM) | 1 to 16 (≈ 1.73 to 27.7 µM) | 1 to 16 (≈ 1.73 to 27.7 µM) | 1 to 16 (≈ 1.73 to 27.7 µM) | 1 to 16 (≈ 1.73 to 27.7 µM) | 1 to 16 (≈ 1.73 to 27.7 µM) | CC(n1nnc(CCN2CCN(c3cccc(C(F)(F)F)c3)CC2)n1)C(O)(Cn1cncn1)c1ccc(F)cc1F (stereo not given) |  |  | 
17 | 0.5 to 16 (≈ 0.866 to 27.7 µM) | 0.5 to 16 (≈ 0.866 to 27.7 µM) | 0.5 to 16 (≈ 0.866 to 27.7 µM) | 0.5 to 16 (≈ 0.866 to 27.7 µM) | 0.5 to 16 (≈ 0.866 to 27.7 µM) | 0.5 to 16 (≈ 0.866 to 27.7 µM) | 0.5 to 16 (≈ 0.866 to 27.7 µM) | CC(n1nnnc1CCN1CCN(c2cccc(C(F)(F)F)c2)CC1)C(O)(Cn1cncn1)c1ccc(F)cc1F (stereo not given) |  |  | 
18 | 0.12 to 16 (≈ 0.216 to 28.9 µM) | 0.12 to 16 (≈ 0.216 to 28.9 µM) | 0.12 to 16 (≈ 0.216 to 28.9 µM) | 0.12 to 16 (≈ 0.216 to 28.9 µM) | 0.12 to 16 (≈ 0.216 to 28.9 µM) | 0.12 to 16 (≈ 0.216 to 28.9 µM) | 0.12 to 16 (≈ 0.216 to 28.9 µM) | C[C@H](n1nnnc1CCN1CCN(c2ccc([N+](=O)[O-])cc2)CC1)[C@](O)(Cn1cncn1)c1ccc(F)cc1F |  |  | 
19 | 1 to 16 (≈ 1.9 to 30.3 µM) | 1 to 16 (≈ 1.9 to 30.3 µM) | 1 to 16 (≈ 1.9 to 30.3 µM) | 1 to 16 (≈ 1.9 to 30.3 µM) | 1 to 16 (≈ 1.9 to 30.3 µM) | 1 to 16 (≈ 1.9 to 30.3 µM) | 1 to 16 (≈ 1.9 to 30.3 µM) | CC(n1nnc(CCN2CCN(c3ccc(F)cc3)CC2)n1)C(O)(Cn1cncn1)c1ccc(F)cc1F (stereo not given) |  |  | 

Source: ChEMBL document CHEMBL4393657, “Tetrazole hybrids and their antifungal activities” (2019)
